In US10426717B2, “Glycol esters of dicaffeoylquinic acid and uses thereof” (PLANT ADVANCED TECHNOLOGIES PAT, priority 2016, dated 2019):

Experiments:
[1] = system: fibroblasts NHDFs; experiment: Real time qPCR of Nrf-2 regulated genes (Example 3); format: cell-based, human; settings: 24 h, fraction at 50 μM, vs 0.5% DMSO control
From the text: In order to determine which fraction of the extract according to the invention is responsible for this effect, the expression variations of seven target markers (involved in cellular and skin ageing induced by four fractions of an Ipomoea batatas root extract, and by the extract itself, in fibroblasts have been measured by qRT-PCR. A condition corresponding to fibroblasts NHDFs irradiated with UVA (10 J/cm^2) has been analysed in parallel as a positive control for the test.
The seven markers studied (HOMX1, NQO1, HSPA1A, GCLM, GSTP1, UGT1A6 and NOS2) are genes the expression of which is known to be regulated by the transcription factor Nrf-2, playing a major role in the antioxidant defence.
(§1) The study has been made on human dermis fibroblasts NHDFs (ATCC, CRL-2522, origin: foreskin) at about 40% of their proliferative potential in vitro. These cells have been cultivated in single layer in DMEM medium (Invitrogen, 31885-049) containing 10% foetal calf serum (Invitrogen, 10270-106) and antibiotics (penicillin/streptomycin, Invitrogen, 15140-122). These cells have been maintained in a wet atmosphere at 37° C. containing 5% CO2.
The extraction of total RNAs has been made using the RNeasy kit (Qiagen, 74106), after 24 h treatment with the fractions or 6 h after UVA irradiation. The cells have been rinsed with PBS and lysed in ad hoc buffer (culture triplicates have been made for each condition). The extraction and purification of the RNAs have been made according to the supplier's instructions. The total RNAs have been preserved at −80° C. afterwards.
The real time qPCR method has been used to quantise the expression of target markers in the different populations of RNAs. The specific TaqMan probes have been synthesised by the company Applied Biosystems.
The target sequences of the genes of interest have been amplified by PCR by using the “TaqMan Gene Expression Assays” (Applied Biosystems). […] The TaqMan probes have been grafted with a fluorophore (FAM) at the 5′ end of the sequence with a 3′ fluorescence quencher. […]

[2] = system: human dermis fibroblasts NHDFs; experiment: Cytotoxicity study of the fractions, cell viability to MTS (Example 3); format: cell-based; settings: 24 h, 100, 50, 25, 12.5 and 6.25 μM, cytotoxicity threshold 80% viability
Method: as §1
In order to determine the optimum analysis concentration for the fractions, a preliminary experiment has been made on human dermis fibroblasts NHDFs having performed 30.3 population doublings. This study consisted in evaluating cell viability to MTS (3-(4,5-dimethythiazol-2-yl)-5-(3-carboxy-methoxyphenyl)-2-(4-sulphophenyl)-2H-tetrazolium) (Promega, G3581) after 24 h treatment for the 4 fractions, at 5 concentrations (100 μM, 50 μM, 25 μM, 12.5 μM, and 6.25 μM) and in culture triplicates (n=3). The fractions and extract have been prepared in DMSO and DPG70 respectively, the effect of these 2 vehicles has also been tested.
0.08% SDS (sodium dodecyl sulphate) has been used as a cytotoxicity positive control in order to validate the experiment.
In order to determine the optimum study concentration of the 4 fractions, a cytotoxicity study has been made on human dermis fibroblasts NHDFs, based on 5 concentrations after 24 h contact (n=3). The experimental parameters were identical to those used in the following for the study of the effects on the gene expression in terms of culture passages of the cells, confluence and contact time. The effect of the 2 vehicles (DPG70 and DMSO) has been tested in parallel.
The results have been compared to the untreated control and 0.08% SDS has been used as a cytotoxicity positive control in order to validate the experiment. The cytotoxicity threshold has been arbitrarily set to 80% viability.

[3] = system: fibroblasts NHDFs; experiment: Induction of a radical stress by the actives, ROS with H2DCFDA probe; format: cell-based, human; settings: fibroblasts treated with Trolox, normalised to MTS viability, vs 0.1% EtOH control
Method: The study has been made on human dermis fibroblasts NHDFs (ATCC, CRL-2522, origin: foreskin) cultured in single layer in DMEM medium (Invitrogen, 31885-049) containing 10% foetal calf serum (Invitrogen, 10270-106) and antibiotics (Penicillin/Streptomycin, Invitrogen, 15140-122). These cells have been maintained in a wet atmosphere at 37° C. containing 5% CO2. In order to validate the hypothesis of a hormetic effect, it has been checked beforehand that the treatment by the actives alone induced a radical stress. The test used is based on the use of the fluorescent probe H2DCFDA (2′-7′dichlorodihydrofluorescein diacetate, Fischer Scientific, #D399). The probe diffusion into the cell enables its acetate group to be cleaved by intracellular esterases. […] The production of free radicals can thus be quantised by the level of fluorescence emitted by the probe oxidised. […] After rinsing, the fluorescence emitted has been quantised (excitation: 485 nm; emission: 520 nm). In order to provide a result representative of the cellular population of each condition, a cellular viability test (MTS) has been made immediately after quantising the fluorescence emitted. The fluorescence values have thus been normalised with respect to the cellular viabilities.

Row | Structure (SMILES) | overexpression of genes of interest (HMOX1, HSPA1A, NQO1, GCLM, GSTP1; FIGS. 7 to 11) [1] | cytotoxicity (cell viability to MTS) [2] | production of reactive oxygen species (ROS), radical stress [3]
1 | O=C(/C=C/c1ccc(O)c(O)c1)OC1CC(O)(C(=O)O)CC(OC(=O)/C=C/c2ccc(O)c(O)c2)C1O (stereo not shown) [STL965, 3,5-DCQ (Isochlorogenic acid A)] | do not induce an overexpression | no cytotoxicity | –
2 | O=C(/C=C/c1ccc(O)c(O)c1)OC1CC(O)(C(=O)O)CC(O)C1OC(=O)/C=C/c1ccc(O)c(O)c1 (stereo not shown) [STL967, 4,5-DCQ (Isochlorogenic acid C)] | do not induce an overexpression | no cytotoxicity | –
3 | O=C(/C=C/c1ccc(O)c(O)c1)OC1CC(O)(C(=O)O)CC(O)C1OC(=O)/C=C/c1ccc(O)c(O)c1 (stereo not shown) [STL964, 3,4-DCQ (Isochlorogenic acid B)] | do not induce an overexpression | no cytotoxicity | –
4 | Cc1c(C)c2c(c(C)c1O)CCC(C)(C(=O)O)O2 (stereo not shown) [Trolox] | – | – | no radical stress
